Measurements taken from patent publication US7589089B2, “Inhibitors for GlyT-1” (Hoffmann-La Roche Inc., priority 2006, dated 2009).

Target: T1, mGlyT-1b (Mus musculus, UniProt P28571)
T1 construct: host or cells: Flp-in-CHO
T1 sequence (P28571 1-651 isoform P28571-2): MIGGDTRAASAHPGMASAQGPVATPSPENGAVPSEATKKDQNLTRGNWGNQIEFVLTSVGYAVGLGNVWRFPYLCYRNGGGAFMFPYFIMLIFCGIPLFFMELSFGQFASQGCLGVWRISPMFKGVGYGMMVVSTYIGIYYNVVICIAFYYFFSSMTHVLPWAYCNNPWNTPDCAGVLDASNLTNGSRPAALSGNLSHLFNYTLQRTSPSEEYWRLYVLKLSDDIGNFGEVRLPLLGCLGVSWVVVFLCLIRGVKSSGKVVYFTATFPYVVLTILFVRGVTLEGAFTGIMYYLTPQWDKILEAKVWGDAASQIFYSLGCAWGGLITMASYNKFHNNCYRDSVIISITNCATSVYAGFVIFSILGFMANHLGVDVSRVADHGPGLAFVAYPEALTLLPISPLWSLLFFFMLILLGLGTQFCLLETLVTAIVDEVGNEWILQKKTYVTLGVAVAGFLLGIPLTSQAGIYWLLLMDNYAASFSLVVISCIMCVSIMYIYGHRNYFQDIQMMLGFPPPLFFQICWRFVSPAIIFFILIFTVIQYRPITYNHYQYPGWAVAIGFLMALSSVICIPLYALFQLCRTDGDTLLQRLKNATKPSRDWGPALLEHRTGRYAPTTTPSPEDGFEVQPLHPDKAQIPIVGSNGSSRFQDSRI
Experiment: Glycine Uptake Inhibition Assay (mGlyT-1b)
Assay type: cell-based
Description: DMEM complete medium: Nutrient mixture F-12 (Gibco Life-technologies), fetal bovine serum (FBS) 5%, (Gibco life technologies), Penicillin/Streptomycin 1% (Gibco life technologies), Hygromycin 0.6 mg/ml (Gibco life technologies), Glutamine 1 mM Gibco life technologies)
Uptake buffer (UB): 150 mM NaCl, 10 mM Hepes-Tris, pH 7.4, 1 mM CaCl2, 2.5 mM KCl, 2.5 mM MgSO4, 10 mM (+) D-glucose.
Flp-in™-CHO (Invitrogen Cat n° R758-07) cells stably transfected with mGlyT1b cDNA.
Glycine Uptake Inhibition Assay (mGlyT-1b)
On day 1 mammalian cells, (Flp-in™-CHO), transfected with mGlyT-1b cDNA, were plated at the density of 40,000 cells/well in complete F-12 medium, without hygromycin in 96-well culture plates. On day 2, the medium was aspirated and the cells were washed twice with uptake buffer (UB). The cells were then incubated for 20 min at 22° C. with either (i) no potential competitor, (ii) 10 mM non-radioactive glycine, (iii) a concentration of a potential inhibitor. A range of concentrations of the potential inhibitor was used to generate data for calculating the concentration of inhibitor resulting in 50% of the effect (e.g. IC50, the concentration of the competitor inhibiting glycine uptake of 50%). A solution was then immediately added containing [^3H]-glycine 60 nM (11-16 Ci/mmol) and 25 μM non-radioactive glycine. The plates were incubated with gentle shaking and the reaction was stopped by aspiration of the mixture and washing (three times) with ice-cold UB. The cells were lysed with scintillation liquid, shaken 3 hours and the radioactivity in the cells was counted using a scintillation counter.

## O=C(CN(Cc1cccc(F)c1F)C(=O)c1ccc(F)cc1)Nc1ccc(F)c(Cl)c1 [Example 84, N-[(3-Chloro-4-fluoro-phenylcarbamoyl)-methyl]-N-(2,3-difluoro-benzyl)-4-fluoro-benzamide]
  IC50: 178 nM

## N#Cc1ccc(C(=O)N(CC(=O)Nc2ccc(F)c(Cl)c2)Cc2cccc(F)c2F)cc1 [Example 85, N-[(3-Chloro-4-fluoro-phenylcarbamoyl)-methyl]-4-cyano-N-(2,3-difluoro-benzyl)-benzamide]
  IC50: 123 nM

## N#Cc1ccc(C(=O)N(CC(=O)Nc2ccc(F)c(Cl)c2)Cc2c(F)cccc2F)cc1 [Example 88, N-[(3-Chloro-4-fluoro-phenylcarbamoyl)-methyl]-4-cyano-N-(2,6-difluoro-benzyl)-benzamide]
  IC50: 199 nM

## O=C(CN(Cc1cc(F)cc(F)c1)C(=O)c1ccc(Cl)cc1)Nc1ccc(F)c(Cl)c1 [Example 89, 4-Chloro-N-[(3-chloro-4-fluoro-phenylcarbamoyl)-methyl]-N-(3,5-difluoro-benzyl)-benzamide]
  IC50: 306 nM

## O=C(CN(Cc1cc(F)cc(F)c1)C(=O)c1ccc(OC(F)(F)F)cc1)Nc1ccc(F)c(Cl)c1 [Example 90, N-[(3-Chloro-4-fluoro-phenylcarbamoyl)-methyl]-N-(3,5-difluoro-benzyl)-4-trifluoromethoxy-benzamide]
  IC50: 288 nM

## CC(C)(C)CCN(CC(=O)Nc1cccc(Cl)c1)C(=O)c1ccc(Cl)cc1 [Example 96, 4-Chloro-N-[(3-chloro-phenylcarbamoyl)-methyl]-N-(3,3-dimethyl-butyl)-benzamide]
  IC50: 359 nM

## N#Cc1cccc(CN(CC(=O)Nc2cccc(Cl)c2)C(=O)c2ccc(Cl)cc2)c1 [Example 100, 4-Chloro-N-[(3-chloro-phenylcarbamoyl)-methyl]-N-(3-cyano-benzyl)-benzamide]
  IC50: 192 nM

## COc1ccccc1CN(CC(=O)Nc1cccc(Cl)c1)C(=O)c1ccc(Cl)cc1 [Example 102, 4-Chloro-N-[(3-chloro-phenylcarbamoyl)-methyl]-N-(2-methoxy-benzyl)-benzamide]
  IC50: 60 nM

## Cc1cccc(CN(CC(=O)Nc2cccc(Cl)c2)C(=O)c2ccc(Cl)cc2)c1 [Example 103, 4-Chloro-N-[(3-chloro-phenylcarbamoyl)-methyl]-N-(3-methyl-benzyl)-benzamide]
  IC50: 142 nM

## Cc1ccccc1CN(CC(=O)Nc1cccc(Cl)c1)C(=O)c1ccc(Cl)cc1 [Example 104, 4-Chloro-N-[(3-chloro-phenylcarbamoyl)-methyl]-N-(2-methyl-benzyl)-benzamide]
  IC50: 209 nM

## O=C(CN(Cc1cccc(Cl)c1)C(=O)c1ccc(Cl)cc1)Nc1cccc(Cl)c1 [Example 105, 4-Chloro-N-(3-chloro-benzyl)-N-[(3-chloro-phenylcarbamoyl)-methyl]-benzamide]
  IC50: 21 nM

## O=C(CN(Cc1ccccc1Cl)C(=O)c1ccc(Cl)cc1)Nc1cccc(Cl)c1 [Example 106, 4-Chloro-N-(2-chloro-benzyl)-N-[(3-chloro-phenylcarbamoyl)-methyl]-benzamide]
  IC50: 25 nM

## O=C(CN(Cc1ccco1)C(=O)c1ccc(Cl)cc1)Nc1cccc(Cl)c1 [Example 107, 4-Chloro-N-[(3-chloro-phenylcarbamoyl)-methyl]-N-furan-2-ylmethyl-benzamide]
  IC50: 199 nM

## COc1ccc(C(=O)N(CC(=O)Nc2ccc(F)c(Cl)c2)c2ccccc2)cc1 [Example 108, N-[(3-Chloro-4-fluoro-phenylcarbamoyl)-methyl]-4-methoxy-N-phenyl-benzamide]
  IC50: 182 nM

## COc1ccc(C(=O)N(CC(=O)Nc2ccc(C)c(Cl)c2)c2ccccc2)cc1 [Example 110, N-[(3-Chloro-4-methyl-phenylcarbamoyl)-methyl]-4-methoxy-N-phenyl-benzamide]
  IC50: 369 nM

## O=C(CN(C(=O)c1cc2ccccc2s1)c1ccccc1)Nc1ccc(Cl)c(Cl)c1 [Example 113, Benzo[b]thiophene-2-carboxylic acid [(3,4-dichloro-phenylcarbamoyl)-methyl]-phenyl-amide]
  IC50: 150 nM

## O=C(CN(C(=O)c1ccc(OC(F)(F)F)cc1)c1ccccc1)Nc1ccc(Cl)c(Cl)c1 [Example 114, N-[(3,4-Dichloro-phenylcarbamoyl)-methyl]-N-phenyl-4-trifluoromethoxy-benzamide]
  IC50: 91 nM

## CN(C)c1ccc(C(=O)N(CC(=O)Nc2ccc(Cl)c(Cl)c2)c2ccccc2)cc1 [Example 116, N-[(3,4-Dichloro-phenylcarbamoyl)-methyl]-4-dimethylamino-N-phenyl-benzamide]
  IC50: 191 nM

## COc1ccc(C(=O)N(CC(=O)Nc2ccc(Cl)c(Cl)c2)c2cccc(Cl)c2)cc1 [Example 117, N-(3-Chloro-phenyl)-N-[(3,4-dichloro-phenylcarbamoyl)-methyl]-4-methoxy-benzamide]
  IC50: 210 nM

## O=C(CN(C(=O)COc1ccc(Cl)cc1)c1ccccc1)Nc1ccc(Cl)c(Cl)c1 [Example 118, 2-(4-Chloro-phenoxy)-N-[(3,4-dichloro-phenylcarbamoyl)-methyl]-N-phenyl-acetamide]
  IC50: 259 nM

## O=C(CN(Cc1ccccc1F)C(=O)c1ccc(N2CCOCC2)nc1)Nc1cccc(Cl)c1 [Example 119, N-[(3-Chloro-phenylcarbamoyl)-methyl]-N-(2-fluoro-benzyl)-6-morpholin-4-yl-nicotinamide]
  IC50: 355 nM

## O=C(CN(Cc1ccccc1F)C(=O)c1ccc(Cl)nc1)Nc1cccc(Cl)c1 [Example 120, 6-Chloro-N-[(3-chloro-phenylcarbamoyl)-methyl]-N-(2-fluoro-benzyl)-nicotinamide]
  IC50: 182 nM

## COc1ccc(C(=O)N(CC(=O)Nc2ccc(Cl)c(Cl)c2)C2CCCC2)cc1 [Example 126, N-Cyclopentyl-N-[(3,4-dichloro-phenylcarbamoyl)-methyl]-4-methoxy-benzamide]
  IC50: 357 nM
